Source: paper PMC7968666, “The pharmacokinetics and drug-drug interactions of ivermectin in Aedes aegypti mosquitoes” (PLoS Pathogens, 2021)
Values joined by “and” are separate entries in the source; they are usually repeats but may differ in a detail not shown here. Equal values may be shown once. “Also recorded” adds a separate entry of the source.

Test: Mosquito dosing experiments: ivermectin recovered from single mosquitoes directly after membrane blood feeding (LC-MS/MS)
Type: in vivo, Aedes aegypti
Procedure: Drug stock solutions were prepared in DMSO and added to blank human blood at a ratio of 1:1000 so that the DMSO content was less than 0.2%. The mixtures were rotated at room temperature for 30 min to ensure a uniform drug distribution (Rotator Genie, Scientific Industries, Bohemia, USA). The sugar water within the mosquito cages was replaced by tap water 24 h prior to the PK experiments. Twelve hours later, the tap water was also removed to starve the mosquitoes. On the day of the PK experiment, 25–35 starved, female mosquitoes with an age of 6–7 days post-emergence were transferred with a mouth aspirator into 2 dl paper cups that were sealed with a piece of mosquito netting. […] A petri dish (35 mm x 10 mm, BD, Franklin Lakes, USA) was filled with 2.55 ml of warm blood, sealed with a piece of Parafilm (Parafilm M sealing film, Huberlab AG, Aesch, Switzerland) stretched over the rim and turned upside down on top of the paper cup. The mosquitoes were then feeding from blood through the netting and the Parafilm membrane. The feeding was conducted in a climate chamber (HPP110, Memmert GmbH + Co.KG, Schwabach, Germany) at 26° C, 70% humidity, and 50% light intensity. The photoperiod of the climate chamber and the insectary were synchronised. After 20 min of feeding, the cups were placed on ice to immobilise the mosquitoes and separate the fully engorged ones. […]
The first aim was to evaluate the variability of the blood uptake by the mosquitoes. […] The strength of the association was assessed using a linear regression model and its correlation coefficient R^2 using GraphPad prism software 9.0.0 (San Diego, USA). […]
Mosquito extracts were analysed using a modular ultra-high-pressure liquid chromatography (UPLC) system from Shimadzu (Kyoto, Japan) connected to an API 5500 QTRAP tandem mass spectrometer (AB Sciex, Massachusetts, USA). A previously developed and validated LC-MS/MS method for the quantification of ivermectin in human plasma and blood was used for the analyses. […]

Which results are given for CCC(C)C1OC2(CCC1C)CC1CC(CC=C(C)C(OC3CC(OC)C(OC4CC(OC)C(O)C(C)O4)C(C)O3)C(C)C=CC=C3COC4C(O)C(C)=CC(C(=O)O1)C34O)O2 (stereo not drawn) [ivermectin]?
Saturation of uptake over the dose range (0.01–1 μg/ml ivermectin in blood): no saturation was observed; also recorded: without showing saturation; Dosing precision (%CV) of ivermectin, adjusted for mosquito weight (0.01–1 μg/ml ivermectin in blood, n = 30 mosquitoes per dose): less than 13.4%; Ivermectin concentration per mosquito weight (ivermectin dose 0.01 µg/ml in blood, directly after feeding, single mosquitoes 1-30): 0.007 ng/mg and 0.009 ng/mg and 0.008 ng/mg and 0.010 ng/mg and 0.011 ng/mg
